According to patent publication US20060270727A1, “Small molecule therapeutics and uses therefor” (priority 2005, published 2006):
Like-named read-outs stand apart in the source and are kept apart here.

Experiments:
[1] = test system: frataxin mRNA in GM15850 FRDA lymphoid cell line; assay: qRT-PCR of frataxin mRNA, FRDA cell line; type: cell-based, human; details: GM15850 FRDA cell line; 7 days incubation
Description: GAA Specific Polyamides Up Regulate Frataxin mRNA and Protein. To assess whether polyamides alleviate transcription inhibition caused by expanded GAA repeats in the frataxin gene, quantitative real time/reverse transcriptase PCR (qRT-PCR) was used to monitor frataxin mRNA levels in the GM15850 and GM15851 lymphoid cell lines described above; levels of glyceraldehyde 3-phosphate dehydrogenase (GAPDH) mRNA were used as an internal control for each RNA sample; see Example 8. No differences in GAPDH were found between the two cell lines. […] No changes in frataxin mRNA levels were observed on shorter incubation times.
Cell Culture. Epstein Barr virus transformed lymphoblast cell lines GM15850 from a FRDA patient (alleles with 650 and 1030 GAA repeats in the frataxin gene, from the Coriell Cell Repository, Camden, N.J.), and GM15851 from an unaffected sibling (normal range of repeats), were propagated in RMPI 1640 medium with 2 mM L-glutamine and 15% fetal bovine serum at 37° C. in 5% CO2. Cell growth and morphology were monitored by phase contrast microscopy and viability by trypan blue exclusion and an ATP assay (ApoSENSOR™, BioVision). Polyamides were added directly to the culture medium in PBS. Nuclear localization of the polyamides was verified by deconvolution microscopy, by methods well known in the art (see e.g., Dudouet et al., Chem. Biol., 2003, 10: 859-867).
Real-Time Quantitative RT-PCR. Real-time quantitative RT-PCR (qRT-PCR) analysis was performed essentially as previously described (Chuma, et al., 2003, Hepatology 37:198-207), using the following primers for the frataxin gene: […]
RNA was standardized by quantification of GAPDH mRNA (Pattyn et al., 2003, Nucleic Acids Res. 31:122-123), and all values are expressed relative to GAPDH. qRT-PCR was performed using iScript One-Step RT-PCR kit with SYBR green (Biorad). Statistical analysis was performed on three independent quantitative RT-PCR experiments for each RNA sample.

[2] = test system: mismatch DNA sequence 5′-GGAGGAGGTGGAGGAGGA-3′ from the erbB2 (Her2-neu) promoter; assay: DNase I footprinting on mismatch DNA; type: binding, human; details: polyamide concentrations up to 100 nM
Experimental: Two additional molecules, FA5 [(ImPyβ)4ImβDp] and FA6 [(ImPyβ)5ImβDp], were synthesized in order to target longer regions of GAA repeats in duplex DNA; i.e., (AAG)5 (SEQ ID NO: ______) and (AAG)6 (SEQ ID NO: ______) respectively. […] As another test for sequence specificity, footprinting experiments with FA1 and FA3 and a radiolabeled DNA fragment containing a mismatch DNA sequence 5′-GGAGGAGGTGGAGGAGGA-3′ (SEQ ID NO: ______) were performed.
The first oligonucleotide shown was radiolabeled as above to generate a PCR product labeled on the GAA strand. A 150 bp PCR product containing a (GGA•TCC)6 mismatch sequence was derived from the erbB2 (Her2-neu) promoter in human genomic DNA with the following oligonucleotides: […]

[3] = target: GAA·TTC duplex repeats in the frataxin gene; radiolabeled PCR product containing a (GAA)6 sequence; assay: Quantitative DNase I footprinting on (GAA)6 DNA; type: binding; details: for sequence specificity: DNase I footprinting; for binding affinity for duplex GAA•TTC repeat DNA, in words: compared with FA1
Description: Targeting GAA Repeat DNA with Polyamides. β-Alanine linked polyamides FA1-FA6 were synthesized (see Example 6) with sequence, theoretical DNA binding site, theoretical DNA binding site SEQ ID NO: ______) and binding affinity as shown in Table 1. […] Those of skill in the art will recognize that this value may be an underestimation of the affinity of this molecule for GAA repeat DNA since the KD measurements are limited by a minimum DNA concentration of ˜2 pM in the binding reaction. Radiolabeling of nucleic acid incorporated γ^32P ATP and polynucleotide kinase used standard procedures.
Polyamlde Synthesis and Characterization. Polyamides were synthesized by solid phase methods (Urbach & Dervan, Id.; Baird & Dervan, 1996, J. Am. Chem. Soc. 118:6141-6146) and their identity and purity verified by MALDI-TOF MS and analytical HPLC, using methods well known in the art. Fluorescent conjugates were prepared by coupling BODIPY (Molecular Probes) to the carboxyl-terminus (Best et al., 2003, Proc. Natl. Acad. Sci. U.S.A. 100:12063-12068). Binding affinities for match and mismatch sites were determined by quantitative DNase I footprinting (Trauger & Dervan, Id). A plasmid harboring six GAA repeats was constructed by cloning the oligonucleotide
in the pCR2.1 TOPO vector (Invitrogen, Calif.), and a 117 bp singly end-labeled PCR product was generated from this plasmid with the following oligonucleotides:
where the second oligonucleotide was labeled with γ-^32P ATP and polynucleotide kinase, using standard procedures, to generate a PCR product labeled on the GAA strand. A 204 bp singly end-labeled PCR product was derived from plasmid pMP142 DNA, containing 33 GAA repeats (Ohshima et al., Id.), with following oligonucleotides: […]

[4] = test system: sticky DNA in plasmid pRW4886, two tracts of (GAA)176; assay: Sticky DNA disruption, EcoNI digestion and agarose gel; type: biochemical; details: 37° C., 1 hr
Experimental: Influence of Polyamides on Sticky DNA Conformation. Plasmid pRW4886, which contains two tracts of (GAA)176 (SEQ ID NO: ______) in a direct repeat orientation (Vetcher et al., 2002b, Id)., and forms sticky DNA, was treated with polyamides at concentrations of 0-50 μM at 37° C. for 1 hr. Restriction digestion with EcoNI following the polyamide incubation enabled visualization of the presence or absence of an EcoNI cleaved sticky DNA band that runs with decreased mobility compared to the linearized plasmid on 1% agarose gels. Quantitation was by densitometric analysis using Fluor Chem version 3.04 (Alpha Innotech Corp).
The capacity of sequence-specific polyamides to disrupt the intramolecular sticky DNA structure formed by GAA repeat tracts was investigated. Plasmids harboring the sticky DNA structure are visualized by gel electrophoresis after restriction endonuclease cleavage, by methods well known in the art. […] Plasmid pRW4886, which contains two tracts of (GAA)176 (SEQ ID NO: ______) in a direct repeat orientation (Vetcher et al., 2002b, Id.), was incubated with each of polyamides FA1, FA2, FA3 and FA4 at concentrations ranging from 0-50 μM. The polyamide-bound DNA was then digested with EcoNI and subjected to electrophoresis on 1% agarose gels to determine the amount of EcoNI cleaved sticky DNA retarded band present. Incubation of pRW4886 DNA with FA3 shifted the equilibrium from a maximum amount of sticky DNA to a complete loss of the EcoNI cleaved sticky DNA retarded band at a concentration of 50 nM. […] For FA1, a 1 μM concentration was needed to dissociate the DNA-DNA structure-forming region. […] Since sticky DNA inhibits transcription (Ohshima et al., Id.; Sakamoto et al., 2001, J. Biol. Chem. 276:27171-27177), and since the polyamides destabilize this conformation by shifting the structural equilibrium to duplex B-type DNA, it is highly likely that the increases in frataxin mRNA observed with polyamide FA1 are due to this structural transition.

[5] = quantitative DNase I footprinting, mean and standard deviation, minimum of two determinations, read-out: Binding affinity (KD)

CN(C)CCCNC(=O)CCNC(=O)c1nc(NC(=O)CCNC(=O)c2cc(NC(=O)c3nc(NC(=O)CCNC(=O)c4cc(NC(=O)c5nc(NC(=O)CCNC(=O)c6cc(NC(=O)c7nccn7C)cn6C)cn5C)cn4C)cn3C)cn2C)cn1C [FA3, (ImPyβ)3ImβDp]
effect on frataxin mRNA levels, in words [1]: did not increase frataxin mRNA levels
binding to mismatch DNA sequence [2]: Neither FA1 nor FA3 bound this DNA sequence
Kd ([3]; footprinting at low (~2 pM) DNA concentrations, may underestimate affinity, read-out: KD): ~0.003 nM
Kd [3, 5]: 0.003 ± 0.001 nM
concentration for complete loss of the EcoNI cleaved sticky DNA retarded band [4]: 50 nM

CN(C)CCCNC(=O)CCNC(=O)c1cc(NC(=O)CCNC(=O)c2nc(NC(=O)c3nc(NC(=O)CCNC(=O)c4cc(NC(=O)c5nc(NC(=O)CCNC(=O)c6cc(NC(=O)c7nccn7C)cn6C)cn5C)cn4C)cn3C)cn2C)cn1C [FA4, (ImPyβ)2ImImβPyβDp]
Kd ([3]; (GAA)6 DNA, values in text, read-out: apparent dissociation constant (KD)): 2 nM
binding affinity, times less than FA3 ([3]; FA4 vs FA3): ~1000 times
reduction of binding affinity vs match polyamide ([3]; mismatch vs match polyamide (FA2 vs FA1, FA4 vs FA3)): three orders of magnitude
concentration needed to affect or dissociate sticky DNA [4]: ≥ 5 µM

CN(C)CCCNC(=O)CCNC(=O)c1nc(NC(=O)CCNC(=O)c2cc(NC(=O)c3nc(NC(=O)CCNC(=O)c4cc(NC(=O)c5nc(NC(=O)CCNC(=O)c6cc(NC(=O)c7nc(NC(=O)CCNC(=O)c8cc(NC(=O)c9nccn9C)cn8C)cn7C)cn6C)cn5C)cn4C)cn3C)cn2C)cn1C [FA5, (ImPyβ)4ImβDp]
sequence specificity [3]: less specific than FA1 or FA3
binding affinity for duplex GAA•TTC repeat DNA, in words [3]: comparable to that of FA1
Kd [3, 5]: 0.2 ± 0.02 nM

CN(C)CCCNC(=O)CCNC(=O)c1nc(NC(=O)CCNC(=O)c2cc(NC(=O)c3nc(NC(=O)CCNC(=O)c4cc(NC(=O)c5nc(NC(=O)CCNC(=O)c6cc(NC(=O)c7nc(NC(=O)CCNC(=O)c8cc(NC(=O)c9nc(NC(=O)CCNC(=O)c%10cc(NC(=O)c%11nccn%11C)cn%10C)cn9C)cn8C)cn7C)cn6C)cn5C)cn4C)cn3C)cn2C)cn1C [FA6, (ImPyβ)5ImβDp]
sequence specificity [3]: less specific than FA1 or FA3
binding affinity for duplex GAA•TTC repeat DNA, in words [3]: comparable to that of FA1
Kd [3, 5]: 0.22 ± 0.08 nM

CN(C)CCCNC(=O)CCNC(=O)c1nc(NC(=O)CCNC(=O)c2cc(NC(=O)c3nccn3C)cn2C)cn1C [ImPyβImβDp]
binding affinity ([3]; six bp sequence 5′-AAGAAG-3′): low μM
